Assay results from the OPERA property sets (Mansouri et al. 2018).
≈ marks a conversion by molar mass, not a printed value. Where a SMILES comes first, the peptide text is derived from it.

Conditions: not given

Row | SMILES | logP | solubility [mM]
1 | CN(C)C(=S)N(C)C | 0.49 | –
2 | CCc1cc2c(s1)N(C)C(=O)CN=C2c1ccccc1Cl | 3.18 | –
3 | CCOC1OC2OC3(C)CCC4C(C)C(O)CC(C1C)C24OO3 (stereo not given) | 2.14 | –
4 | C[C@H](CCC(=O)O)[C@H]1CC[C@H]2[C@@H]3CC[C@@H]4C[C@H](O)CC[C@]4(C)[C@H]3C[C@H](O)[C@]12C | 3.5 | –
5 | CC1=NS(=O)(=O)c2cccnc2N1 | -0.25 | –
6 | COC1=CC(=O)C=C(OC)C1=O | -0.06 | –
7 | CC(C)C(C#N)c1ccc([N+](=O)[O-])cc1 (stereo not given) | 2.8 | –
8 | O=C(NCc1ccc(O)cc1)C(=O)c1c[nH]c2ccc([N+](=O)[O-])cc12 | 2.67 | –
9 | CCCCCCN1CCCC1=O | 2.6 | –
10 | ClC1=C(Cl)C2(Cl)C(Cl)=C(Cl)C3CC1C(Cl)C32 (stereo not given) | 5.66 | –
11 | CCCCn1cccc(O)c1=O | 1.18 | –
12 | CC1(C)[C@H](/C=C(\Cl)C(F)(F)F)[C@@H]1C(=O)O[C@H](C#N)c1cccc(Oc2ccccc2)c1 | – | 1.11e-05 (≈ 5e-06 mg/mL)
13 | NS(=O)(=O)c1nn2c(=Nc3ccc(O)cc3)snc2s1 | 1.89 | –
14 | Nc1nc2c(ncn2COCCO)c(=O)[nH]1 | -1.56 | –
15 | ClC1=C(Cl)C2(Cl)C3C(Cl)C(Cl)(Cl)CC3C1(Cl)C2(Cl)Cl (stereo not given) | 6.2 | –
16 | O=C1OC(c2ccc(O)cc2)(c2ccc(O)cc2)c2ccccc21 | 2.89 | –

Row | SMILES | logP | solubility [mM]
17 | CC(C)NC1=NC(=O)C(=Cc2ccc([N+](=O)[O-])o2)S1 | 1.29 | –
18 | CCCCCCNC(=O)CCC(NS(=O)(=O)c1ccc(C)cc1)C(=O)O (stereo not given) | 0.84 | –
19 | Cc1ccc2oc(-c3ccccc3C(=O)O)c(Br)c2c1 | 5.19 | –
20 | CCn1cc(C(=O)NC(C)C(=O)OC)c(=O)c2ccc(C)nc21 (stereo not given) | 2.47 | –
21 | N[C@@H](Cc1ccc(O)c(O)c1)C(=O)OCCOc1ccccc1 | 1.51 | –
22 | CC1CCCC(C)C1O (stereo not given) | 2.1 | –
23 | O=Cc1ccc(F)cc1 | 1.54 | –
24 | O=C(O)C1CCN1CC(O)Cn1ccnc1 (stereo not given) | -2.02 | –
25 | CC(=O)N[C@@H](CC(C)C)C(=O)N[C@H](C(=O)N[C@@H](CC(C)C)C(N)=O)[C@@H](C)O (Ac-Leu-Thr-Leu-NH2) | 0.24 | –
26 | COCCn1cnc2c(=N)n(C)c(=O)[nH]c21 | -0.96 | –
27 | O=[N+]([O-])c1ccc2c(c1)NCC2 | 1.92 | –
28 | COc1ccc(C(C)NCCC(c2ccccc2)c2ccccc2)cc1OC (stereo not given) | 5.8 | –
29 | N#Cc1cc(-c2ccncc2)cnc1NCCO | 1.17 | –
30 | COc1cccc(OC)c1OCCN(C)C | 1.05 | –
31 | Cc1ccc(N)cc1C | 1.84 | –
32 | NS(=O)(=O)c1cc2cc(CNCCF)sc2o1 | 0.34 | –

Same assay, conditions: 20 °C

Row | SMILES | solubility [mM]
33 | CCC(Cl)Cl | 23.9 (≈ 2.7 mg/mL)
34 | Clc1ccc(-c2ccc(Cl)cc2)cc1 | 0.000278 (≈ 6.2e-05 mg/mL)

Same assay, conditions: 22 °C

Row | SMILES | solubility [mM]
35 | CCOC(=O)CC(SP(=O)(OC)OC)C(=O)OCC (stereo not given) | 23.9 (≈ 7.5 mg/mL)
36 | Clc1c(Cl)c(Cl)c2ccccc2c1Cl | 1.6e-05 (≈ 4.26e-06 mg/mL)

Same assay, conditions: 23 °C

Row | SMILES | solubility [mM]
37 | Clc1ccc(Cl)c(-c2ccc(Cl)c(Cl)c2)c1 | 0.000136 (≈ 3.97e-05 mg/mL)

Same assay, conditions: 23.0 °C

Row | SMILES | log10 OH rate constant (cm³/molecule/s)
38 | CC(=O)C(C)CO (stereo not given) | -10.8
39 | CC(=O)CCC=C(C)C | -9.8

Same assay, conditions: 24 °C

Row | SMILES | solubility [mM]
40 | O=NN1CCCCCC1 | 99.9 (≈ 12.8 mg/mL)
41 | CCCCN(CCCC)N=O | 8.03 (≈ 1.27 mg/mL)

Same assay, conditions: 24.0 °C

Row | SMILES | log10 OH rate constant (cm³/molecule/s)
42 | c1ccc2ncccc2c1 | -10.9
43 | c1ccc2cnccc2c1 | -11.1

Same assay, conditions: 25 °C

Row | SMILES | solubility [mM]
44 | c1ccc2ncccc2c1 | 47.3 (≈ 6.11 mg/mL)
45 | CCCCCCCCOC(=O)COc1ccc(Cl)cc1Cl | 9.51e-05 (≈ 3.17e-05 mg/mL)
46 | C=Cc1cccc(C)c1 | 0.753 (≈ 0.089 mg/mL)
47 | CCCCN(CC)C(=O)SCCC | 0.492 (≈ 0.1 mg/mL)
48 | Clc1cccc(Cl)c1Cl | 0.0992 (≈ 0.018 mg/mL)
49 | COc1ccccc1OCC(O)CO (stereo not given) | 252 (≈ 50 mg/mL)
50 | COC(=O)c1ccccc1C(=O)OC | 20.6 (≈ 4 mg/mL)
51 | Cl[C@H]1[C@H](Cl)[C@@H](Cl)[C@@H](Cl)[C@H](Cl)[C@H]1Cl (racemic) | 0.00942 (≈ 0.00274 mg/mL)
52 | CCCc1ccc(O)cc1 | 9.38 (≈ 1.28 mg/mL)
53 | Clc1ccc(-c2ccccc2Cl)cc1 | 0.00524 (≈ 0.00117 mg/mL)
54 | CCCCCCCCCCCCCCCCCCCC | 6.72e-06 (≈ 1.9e-06 mg/mL)
55 | CN | 34800 (≈ 1080 mg/mL)
56 | CC(=O)OCC(=O)[C@H]1CC[C@H]2[C@@H]3CCC4=CC(=O)CC[C@]4(C)[C@H]3CC[C@]12C | 0.0234 (≈ 0.00873 mg/mL)
57 | CCCCC(CC)COP(=O)(Oc1ccccc1)Oc1ccccc1 (stereo not given) | 0.00524 (≈ 0.0019 mg/mL)
58 | ClC1=C(Cl)C2(Cl)C3CCC4C(CCC3C1(Cl)C2(Cl)Cl)C1(Cl)C(Cl)=C(Cl)C4(Cl)C1(Cl)Cl (stereo not given) | 6.73e-11 (≈ 4.4e-11 mg/mL)
59 | CC(F)(F)Cl | 13.9 (≈ 1.4 mg/mL)

Same assay, conditions: 25.0 °C

Row | SMILES | log10 OH rate constant (cm³/molecule/s)
60 | C=CC(C)(C)O | -10.2
61 | CCOCC=O | -10.8
62 | O=CC(Cl)(Cl)Cl | -11.8
63 | FC(F)Br | -14
64 | Clc1ccc(-c2ccc(Cl)cc2)cc1 | -11.7
65 | FC(F)OC(Cl)C(F)(F)F (stereo not given) | -13.8
66 | CCNc1nc(Cl)nc(NCC)n1 | -11
67 | CC(Cl)C(C)Cl (stereo not given) | -12
68 | Cl[C@H]1[C@H](Cl)[C@@H](Cl)[C@@H](Cl)[C@H](Cl)[C@H]1Cl (racemic) | -12.8
69 | CC(=O)CCC(C)C | -11
70 | c1cc2c3c(cccc3c1)CC2 | -10.2
71 | CCC(C)Cl (stereo not given) | -11.6
72 | COC(=O)C(C)O (stereo not given) | -11.6
73 | COCOC | -11.3
74 | O=CC(F)Cl (stereo not given) | -11.7
75 | FC(F)CC(F)(F)F | -14.1
